Measured values reported in US6936623B2, “Pyrano[2,3-C]imidazo[-1,2-A]pyridine derivatives for the treatment of gastrointestinal disorders” (Altana Pharma AG, priority 2000, dated 2005).

Test system: pentagastrin-stimulated acid secretion of the perfused rat stomach
Conditions: perfused rat stomach in vivo, dose 1 μmol/kg i.v.
Method: The pH (pH meter 632, glass electrode EA 147; φ=5 mm, Metrohm) and, by titration with a freshly prepared 0.01 N NaOH solution to pH 7 (Dosimat 665 Metrohm), the secreted HCl were determined in the effluent in each case collected at an interval of 15 minutes.
The gastric secretion was stimulated by continuous infusion of 1 μg/kg (=1.65 ml/h) of i.v. pentagastrin (left femoral vein) about 30 min after the end of the operation (i.e. after determination of 2 preliminary fractions).
The body temperature of the animals was kept at a constant 37.8-38° C. by infrared irradiation and heat pads (automatic, stepless control by means of a rectal temperature sensor).

Structure (SMILES)	Inhibition of acid secretion
CCO[C@@H]1c2ccn3c(C)c(C)nc3c2O[C@H](c2ccccc2)[C@@H]1O [Example 3, (7R,8R,9R)-2,3-Dimethyl-8-hydroxy-7-ethoxy-9-phenyl-7H-8,9-dihydro-pyrano[2,3-c]imidazo-[1,2-a]pyridine]	100%
COCCO[C@@H]1c2ccn3c(C)c(C)nc3c2O[C@H](c2ccccc2)[C@@H]1O [Example 1, (7R,8R,9R)-2,3-Dimethyl-8-hydroxy-7-(2-methoxyethoxy)-9-phenyl-7H-8,9-dihydro-pyrano-[2,3-c]imidazo[1,2-a]pyridine]	100%
